By IC50 is commonly meant the point on the concentration scale where inhibition reaches its midpoint.

Active and inactive are the calls of the source. How the calls were made is not given here.

The test system of the experiment is MTT cytotoxicity, absorbance 620 nm. Briefly: cell viability loss, MTT reduction – absorbance, cytotoxicity control for NOD2-RIPK2 interaction inhibitor project, late-stage follow-up (AID 652169). Background: Tetrazolium assays rely on reduction of a dye to a coloured formazan, in cell work by metabolically active cells.
In the case of `O=[N+]([O-])c1cccc(S(=O)(=O)N2CCCCCC2)c1`, the IC50 is > 10 µM (inactive).

As for `Cc1ccc(C(C[N+](=O)[O-])n2nc(C)cc2C)cc1` (stereo unspecified), the IC50 is > 10 µM (inactive).

For the molecule `O=S(=O)(c1ccccc1)N1CCCCCC1`, the IC50 was > 10 µM (inactive).

Take `O=[N+]([O-])c1cc(S(=O)(=O)N2CCCCCC2)ccc1F`: the IC50 was > 10 µM (inactive).

With `Cc1ncc([N+](=O)[O-])n1Cc1ccc(Cl)c(Cl)c1`, the IC50 was > 10 µM (inactive).

`Cc1cc(S(=O)(=O)N2CCCCCC2)ccc1F`: the IC50 is > 10 µM (inactive).

For `Cc1nc([N+](=O)[O-])c(Br)n1Cc1ccccc1`, the IC50 is > 10 µM (inactive).

As for `Cc1ccc(S(=O)(=O)N2CCCCCC2)cc1[N+](=O)[O-]`, the IC50 was > 10 µM (inactive).

With `COc1ccc(C(C[N+](=O)[O-])n2nc(C)cc2C)cc1` (stereo unspecified), the IC50 was > 10 µM (inactive).

On to `O=S(=O)(c1ccc(F)cc1)N1CCCCCC1`, for which the IC50 was > 10 µM (inactive).

Turning to `Cc1nc([N+](=O)[O-])c(Br)n1Cc1ccc(Cl)c(Cl)c1`, the IC50 is > 10 µM (inactive).

(Values after PubChem BioAssay AID652169 (The Scripps Research Institute Molecular Screening Center, 2013).)
